Reference: ChEMBL document CHEMBL4130473, “Design, synthesis and biological evaluation of 4,7,12,12a-tetrahydro-5H-thieno[3',2':3,4]pyrido[1,2-b]isoquinolines as novel adenosine 5'-monophosphate-activated protein kinase (AMPK) indirect activators for the treatment of type 2 diabetes” (Eur J Med Chem, 2017)
Values belong to the molecule of their own block, whether it stands above or below them.

Columns and labels:
[1] = system: L6; assay: Stimulation of glucose consumption in rat L6 cells at 20 uM incubated for 12 hrs by glucose assay reagent based glucose oxidase method relative to untreated control; assay type: functional
[2] = system: Hepatocyte; assay: Inhibition of glucose production in Sprague-Dawley rat primary hepatocytes grown under gluconeogenic medium incubated for 6 hrs by glucose assay reagent based glucose oxidase method (reference value: 100%); assay type: functional, cell-based
[3] = system: L6; assay: Inhibition of mitochondrial membranes potential in rat L6 cells assessed as mitochondrial membranes potential level at 20 uM incubated for 40 mins by JC1 dye staining based fluorescence assay (reference value: 100 +/- 2.8%); assay type: functional; parameters: scale not given: the % may be the effect or the level left
[4] = system: Hepatocyte; assay: Inhibition of glucose production in Sprague-Dawley rat primary hepatocytes grown under gluconeogenic medium assessed as glucose production level at 20 uM incubated for 6 hrs by glucose assay reagent based glucose oxidase method (reference value: 100%); assay type: functional; parameters: scale not given: the % may be the effect or the level left
[5] = system: Hepatocyte; assay: Inhibition of glucose production in Sprague-Dawley rat primary hepatocytes grown under gluconeogenic medium assessed as glucose production level at 10 uM incubated for 6 hrs by glucose assay reagent based glucose oxidase method (reference value: 100%); assay type: functional; parameters: scale not given: the % may be the effect or the level left
[6] = system: Hepatocyte; assay: Inhibition of glucose production in Sprague-Dawley rat primary hepatocytes grown under gluconeogenic medium assessed as glucose production level at 5 uM incubated for 6 hrs by glucose assay reagent based glucose oxidase method (reference value: 100%); assay type: functional; parameters: scale not given: the % may be the effect or the level left

SMILES: COc1ccc(OC)c2c1CC1c3cc(C=O)sc3CCN1C2 (configuration not stated)
- Activity [1]: 105.9%

SMILES: COc1cc2c(cc1O)CC1c3ccsc3CCN1C2 (configuration not stated)
- Activity [1]: 114.9%

SMILES: c1cc2c(s1)CCN1Cc3cc4c(cc3CC21)OCO4 (configuration not stated)
- Activity [1]: 102.7%

SMILES: c1cncc(Cc2cc3c(s2)CCN2Cc4ccccc4CC32)c1 (configuration not stated)
- Activity [1]: 151.9%

SMILES: COc1ccc(OC)c2c1CC1c3cc(CC4CCNCC4)sc3CCN1C2 (configuration not stated)
- Activity [1]: 103.4%

SMILES: COc1cc(Cl)c2c(c1O)CN1CCc3sccc3C1C2 (configuration not stated)
- Activity [1]: 97.8%

SMILES: COC(=O)c1cc2c(s1)CCN1Cc3c(OC)ccc(OC)c3CC21 (configuration not stated)
- Activity [1]: 82.5%

SMILES: O=C(Cc1ccccc1)Nc1ccc2c(c1)CC1c3ccsc3CCN1C2 (configuration not stated)
- Activity [1]: 120.4%

SMILES: COc1ccc2c(c1)CC1c3ccsc3CCN1C2 (configuration not stated)
- Activity [1]: 103.6%

SMILES: COc1ccc(OC)c2c1CC1c3cc(C(=O)N4CCn5c(nnc5C(F)(F)F)C4)sc3CCN1C2 (configuration not stated)
- Activity [1]: 93.9%

SMILES: COc1ccc(OC)c2c1CC1c3cc(CN4CCCC4)sc3CCN1C2 (configuration not stated)
- Activity [1]: 131.8%

SMILES: COc1ccc(OC)c2c1CC1c3cc(C(=O)N4CCCC4)sc3CCN1C2 (configuration not stated)
- Activity [1]: 100.5%

- inhibition [2]: Dose-dependent effect
SMILES: COc1ccc(OC)c2c1CC1c3cc(CC4CC4)sc3CCN1C2 (configuration not stated)
- Activity [1]: 261.7%
- Activity [3]: 86.4%
- Activity [4]: 45.8%
- Activity [5]: 62.8%
- Activity [6]: 85.4%

SMILES: CC(C)(C)C(=O)Nc1ccc2c(c1)CC1c3ccsc3CCN1C2 (configuration not stated)
- Activity [1]: 112.3%

SMILES: COc1ccc(OC)c2c1CC1c3cc(C(=O)N4CCOCC4)sc3CCN1C2 (configuration not stated)
- Activity [1]: 93.2%

SMILES: COc1ccc(OC)c2c1CC1c3cc(CN4CCOCC4)sc3CCN1C2 (configuration not stated)
- Activity [1]: 101%

SMILES: COc1ccc2c(c1OC)CN1CCc3sccc3C1C2 (configuration not stated)
- Activity [1]: 79.5%
